Non-standard residues stand in square brackets, D forms with d. Residues, ends and D or L forms follow the SMILES beside them.
Tests used:
human TREK-1 channel [1] = biological target: T1, human TREK-1 channel (Homo sapiens, UniProt O95069); conditions: h-TREK-1/HEK cells, current at 0 mV, n = 10 to 12
Protocol: (§1) The human-TREK-1/HEK293 cell line (h-TREK-1/HEK) (Moha ou Maati et al. [2011a]) and HEK-IKS cell line (Ducroq et al. [2010]) were grown in the presence of 0.5 mg/mL G418 in Dulbecco’s modified Eagle’s medium supplemented with 10 % (v/v) heat-inactivated fetal bovine serum containing 1 % (v/v) penicillin/streptomycin in an atmosphere of 95 % air/5 % CO2 as previously described (Moha ou Maati et al. [2011a]).
(§2) All electrophysiological experiments were performed on h-TREK-1/HEK cells seeded at a density of 20,000 cells/35 mm dish after 2–6 days of culture. All electrophysiological recordings were performed in whole cell configuration of the patch clamp technique except for IKS measures which were obtained by using the patch clamp perforated configuration (amphotericin B 0.9 mg/mL in the pipette medium) (Moha ou Maati et al. [2011b]). Each current was evaluated by using a RK 400 patch clamp amplifier (Axon Instrument, USA), low-pass filtered at 3 kHz, and digitized at 10 kHz using a 12-bit analog-to-digital converter digidata (1322 series, Axon Instrument, USA). All current amplitudes are expressed in current densities. Results are expressed as mean ± standard error of the mean (SEM). […] The bath solution contained (in mM) 150 NaCl, 5 KCl, 3 MgCl2, 1 CaCl2, and 10 4-(2-hydroxyethyl)piperazine 1- ethane sulfonic acid (HEPES) adjusted to pH 7.4 with NaOH. The pipette solution contained (in mM) 155 KCl, 3 MgCl2, 5 EGTA, and 10 HEPES adjusted to pH 7.2 with KOH. TREK-1 currents were evaluated at room temperature (21–22 °C) in the presence of a cocktail of potassium channel inhibitors (K^+ blockers, 3 mM 4-aminopyridine (4-AP), 10 mM tetraethylammonium (TEA), 10 μM glibenclamide, 100 nM apamin, and 50 nM charybdotoxin). Stimulation protocols and data acquisition were carried out using a microcomputer (Dell Pentium) with a commercial software and hardware (pClamp 8.2). Currents were recorded by voltage clamp steps to membrane potentials of −100 to +60 mV in 20-mV steps applied from a holding potential of −80 mV. The duration of depolarization pulses was 825 ms, and the pulse cycling rate was 5 s. TREK-1 current amplitudes were evaluated at the end of stimulation pulses. Cells were continuously superfused with microperfusion system.
(§3) All experiments were performed on h-TREK-1/HEK cell line in the presence of a mixture of K^+ channels blockers and by using the whole cell configuration of the patch clamp technique. a Control currents (black-filled circles, K^+ blockers) were amplified by the application of 10 μM of arachidonic acid (white-filled circles, K^+ blockers + AA).

C57Bl/6J mice [2] = conditions: 10^-5 M in 100 μL bolus i.v. 30 min before the test, monitored 24 h, n = 8 per group
Protocol: Locomotor activity was monitored individually for 24 h using an infrared photobeam activity monitoring system (Imetronic, Pessac, France), which measured consecutive horizontal beam breaks. […] Locomotor activity was defined as breaking of consecutive photobeams. Movements were recorded and totalized for each 10-min time section. Six periods were pooled to obtain data for 1 h of time. Different movements were monitored: the coming-and-going between the back and the front of the cage, climbing, and other movements in the back or the front of the cage. Mice were kept under standard laboratory conditions: 12:12 light–dark cycle with free access to food and water during the experiment.
Mice were injected 30 min before to be placed in an infrared photobeam activity monitoring system. Spontaneous locomotor activity was monitored individually for 24 consecutive hours. The number of coming-and-going (a), climbing (b), and total movements except climbing (c) were monitored for each mouse for 10 min section and pooled by 6 to obtain values corresponding to 1 h.

C57Bl/6J mice [3] = conditions: for FST immobility time, subchronic treatment: 10 μg/kg i.v. once a day for 4 days, test on day 5, mean ± SEM, saline 161.80 ± 8.12 s; for FST immobility time, acute treatment: 10 μg/kg single i.v. bolus, 30 min before the test, saline 166.13 ± 5.54 s; for FST immobility time, acute treatment / FST immobility time 1 h after injection (action duration): n = 10, mean ± SEM; for FST immobility time 1 h after injection (action duration): naïve mice at each time; for FST immobility time 1 h after injection (action duration) / FST immobility time 16 h after injection (action duration): saline 170.3 ± 4.5 s (spadin series), 162.7 ± 4.7 s (analog series); for FST immobility time 16 h after injection (action duration): naïve mice, mean ± SEM
Protocol: Naïve male C57Bl/6J mice from 7 to 9 weeks old were used in all experiments (Janvier Laboratory, Saint Berthevin, France). Mice were housed (10 animals per cage) under a 12:12 light–dark cycle (light on at 8:00 am) in a ventilated room at a temperature of 22 ± 1 °C. Animals had free access to water and food (A03; SAFE, Augy, France). All experiments were conducted according to policies on the care and use of laboratory animals of the Society for Neuroscience and also with respect to national laws on animal use.
(§4) For acute treatment, drugs were administered in a single 100-μL bolus 30 min prior to the beginning of the behavioral tests. For subchronic treatment, drugs were injected during four consecutive days, and behavioral tests were performed on day 5, without additional injection.
The animals were individually placed in a non-escapable cylinder (height 30 cm, diameter 15 cm) filled with 15-cm water at 22 ± 1 °C. The trial was conducted for 6 min. The total period of immobility was manually measured during the last 4 min of the test. A mouse was considered immobile when it remained floating with only slight movements to keep its head above water.

C57Bl/6J mice [4] = conditions: kaïnate 25 mg/kg i.p.
Protocol: Kaïnate solutions were prepared in a solution of 140 mM NaCl (saline solution).
Mice (n = 10 per group) were monitored during 2 h for onset and extent of seizures. Six levels of seizure severity were defined: (1) immobility, (2) head/neck movements, (3) clonic unilateral activity, (4) clonic bilateral activity, (5) generalized convulsions, and (6) death. Seizure severity was blindly scored (Tsirka et al. [1995]). The seizure index was calculated by averaging the points for seizure activity in each group (n = 10 per treatment).

C57Bl/6J mice [5] = conditions: water bath 48 °C, 10 μg/kg i.v. 30 min before the test, n = 10 per group, two determinations averaged, mean ± SEM; saline 12.75 ± 0.96 s
Protocol: The tail was immersed in a water bath at 48 °C until withdrawal was observed (cutoff time 30 s). Two separate withdrawal latency time determinations were averaged (Alloui et al. [2006]).
For each mouse, the time to withdraw its tail immersed in a water bath at 48 °C was measured twice and averaged.

human TREK-1 channel [6] = biological target: T1, human TREK-1 channel; assay: cell-based
Protocol: as §1, §2, §3

C57Bl/6J mice [7] = conditions: 10 μg/kg i.v. once a day for 4 days, test on day 5, mean ± SEM; saline 305.00 ± 62.47 s
Protocol: Naïve male C57Bl/6J mice from 7 to 9 weeks old were used in all experiments (Janvier Laboratory, Saint Berthevin, France). Mice were housed (10 animals per cage) under a 12:12 light–dark cycle (light on at 8:00 am) in a ventilated room at a temperature of 22 ± 1 °C. Animals had free access to water and food (A03; SAFE, Augy, France).
as §4
The NSF paradigm is a 2-day test protocol. On day 1, mice were deprived from food. On day 2, mice were placed in a highly brightly lit area, in a plastic box (45 × 45 × 20 cm), with a floor covered with wooden bedding. The test was carried out during a 10-min period. During this time, the latency to eat was measured. During the test, a single pellet of food was placed in the center of the box, on a white platform.

human-IKS current = human-IKS current (Homo sapiens, UniProt P51787); conditions: 10 μM
Protocol: as §1
All electrophysiological recordings were performed in whole cell configuration of the patch clamp technique except for IKS measures which were obtained by using the patch clamp perforated configuration (amphotericin B 0.9 mg/mL in the pipette medium) (Moha ou Maati et al. [2011b]). Each current was evaluated by using a RK 400 patch clamp amplifier (Axon Instrument, USA), low-pass filtered at 3 kHz, and digitized at 10 kHz using a 12-bit analog-to-digital converter digidata (1322 series, Axon Instrument, USA). All current amplitudes are expressed in current densities. Results are expressed as mean ± standard error of the mean (SEM). […] The bath solution contained (in mM) 150 NaCl, 5 KCl, 3 MgCl2, 1 CaCl2, and 10 4-(2-hydroxyethyl)piperazine 1- ethane sulfonic acid (HEPES) adjusted to pH 7.4 with NaOH. The pipette solution contained (in mM) 155 KCl, 3 MgCl2, 5 EGTA, and 10 HEPES adjusted to pH 7.2 with KOH. […] Stimulation protocols and data acquisition were carried out using a microcomputer (Dell Pentium) with a commercial software and hardware (pClamp 8.2). […] Cells were continuously superfused with microperfusion system.
IKS currents were activated by voltage clamp steps of membrane potentials from −100 to +100 mV in 20-mV steps applied from a holding potential of −80 mV. Tail currents were generated by repolarization to −40 mV. Duration of both depolarization and repolarization pulses was 2.4 s, and the pulse cycling rate was 10 s. […] The amplitudes of IKS and IKR currents were calculated at both the end of the first pulse and the peak of the tail pulse.

hERG channel (IKR) = hERG channel (IKR) (Homo sapiens, UniProt Q12809); conditions: 10 μM
Protocol: HEK-293 native cells were grown in serum in an atmosphere of 95 % air/5 % CO2 in Dulbecco’s modified Eagle’s medium supplemented with 10 % (v/v) heat-inactivated fetal bovine containing 1 % (v/v) of penicillin/ streptomycin and Glutamax X 1. Cells were plated at a density of 20,000 cells/35 mm dish, and after 24 h, cells were transfected using the Jet PEI method (Polyplus, France) with 25 ng/35 mm dish of p-IRES-HERG channel vector. Patch clamp experiments were carried out 48 h after transfection.
All electrophysiological recordings were performed in whole cell configuration of the patch clamp technique except for IKS measures which were obtained by using the patch clamp perforated configuration (amphotericin B 0.9 mg/mL in the pipette medium) (Moha ou Maati et al. [2011b]). Each current was evaluated by using a RK 400 patch clamp amplifier (Axon Instrument, USA), low-pass filtered at 3 kHz, and digitized at 10 kHz using a 12-bit analog-to-digital converter digidata (1322 series, Axon Instrument, USA). All current amplitudes are expressed in current densities. Results are expressed as mean ± standard error of the mean (SEM). […] The bath solution contained (in mM) 150 NaCl, 5 KCl, 3 MgCl2, 1 CaCl2, and 10 4-(2-hydroxyethyl)piperazine 1- ethane sulfonic acid (HEPES) adjusted to pH 7.4 with NaOH. The pipette solution contained (in mM) 155 KCl, 3 MgCl2, 5 EGTA, and 10 HEPES adjusted to pH 7.2 with KOH. […] Stimulation protocols and data acquisition were carried out using a microcomputer (Dell Pentium) with a commercial software and hardware (pClamp 8.2). Currents were recorded by voltage clamp steps to membrane potentials of −100 to +60 mV in 20-mV steps applied from a holding potential of −80 mV. The duration of depolarization pulses was 825 ms, and the pulse cycling rate was 5 s. […] Cells were continuously superfused with microperfusion system.
Tail currents were generated by repolarization to −40 mV. […] The amplitudes of IKS and IKR currents were calculated at both the end of the first pulse and the peak of the tail pulse.

C57Bl/6J mice [8] = conditions: 10 μg/kg i.v. for four consecutive days, hippocampal dentate gyrus
Protocol: One day after 5-bromo-2′-deoxyuridine (BrdU) injections, 12 mg per animal divided in four bolus of 300 μL injected every 2 h, mice were anesthetized with isoflurane and transcardially perfused with 20 mL of NaCl 0.9 % followed by 20 mL paraformaldehyde 4 %/NaCl 0.9 %. By using a vibratome (Leica), brains were cut into 40-μm sections, throughout the entire hippocampus. […] For each BrdU labeling, slices were first incubated with a mouse monoclonal anti-BrdU antibody (1/8,000, Becton Dickinson). For chromogenic immunodetection, sections were incubated during 2 h in biotin-conjugated species-specific secondary antibodies (1/400; Vector laboratories) followed by a peroxidase-avidin complex solution, to amplify the reaction. The peroxidase activity of immune complex was visualized with DAB staining using the VectaStain ABC kit according to the manufacturer’s protocol (Vector Laboratories).

Chain of human-IKS current (P51787 whole entry): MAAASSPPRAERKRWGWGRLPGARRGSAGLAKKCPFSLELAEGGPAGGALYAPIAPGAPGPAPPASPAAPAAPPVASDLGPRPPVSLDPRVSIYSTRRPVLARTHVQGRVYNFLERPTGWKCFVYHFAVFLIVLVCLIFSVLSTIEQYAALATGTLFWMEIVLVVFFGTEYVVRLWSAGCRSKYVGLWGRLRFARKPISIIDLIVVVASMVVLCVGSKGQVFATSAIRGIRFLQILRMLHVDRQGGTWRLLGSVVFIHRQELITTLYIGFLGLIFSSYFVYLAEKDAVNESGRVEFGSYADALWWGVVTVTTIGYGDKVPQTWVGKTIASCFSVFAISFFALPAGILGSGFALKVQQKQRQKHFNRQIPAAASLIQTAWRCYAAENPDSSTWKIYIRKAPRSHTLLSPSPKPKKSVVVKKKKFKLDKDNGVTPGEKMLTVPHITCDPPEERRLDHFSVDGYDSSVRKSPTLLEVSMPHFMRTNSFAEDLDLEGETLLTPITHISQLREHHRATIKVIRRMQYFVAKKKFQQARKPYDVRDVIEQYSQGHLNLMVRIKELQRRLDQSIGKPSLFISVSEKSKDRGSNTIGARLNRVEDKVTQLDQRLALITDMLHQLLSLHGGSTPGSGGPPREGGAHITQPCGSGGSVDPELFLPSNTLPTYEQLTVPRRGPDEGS
T1 sequence (O95069 whole entry): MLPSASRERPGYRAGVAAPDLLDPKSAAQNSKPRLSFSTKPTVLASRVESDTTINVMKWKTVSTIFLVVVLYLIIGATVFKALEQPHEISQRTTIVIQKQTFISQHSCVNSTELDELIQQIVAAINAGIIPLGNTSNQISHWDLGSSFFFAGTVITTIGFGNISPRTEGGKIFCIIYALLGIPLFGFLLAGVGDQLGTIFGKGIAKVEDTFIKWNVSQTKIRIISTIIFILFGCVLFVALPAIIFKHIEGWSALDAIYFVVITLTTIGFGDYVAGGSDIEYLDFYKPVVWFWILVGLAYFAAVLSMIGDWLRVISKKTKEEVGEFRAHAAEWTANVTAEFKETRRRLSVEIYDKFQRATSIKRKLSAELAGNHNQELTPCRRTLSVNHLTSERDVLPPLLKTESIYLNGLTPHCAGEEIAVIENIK
Chain of hERG channel (IKR) (Q12809 whole entry): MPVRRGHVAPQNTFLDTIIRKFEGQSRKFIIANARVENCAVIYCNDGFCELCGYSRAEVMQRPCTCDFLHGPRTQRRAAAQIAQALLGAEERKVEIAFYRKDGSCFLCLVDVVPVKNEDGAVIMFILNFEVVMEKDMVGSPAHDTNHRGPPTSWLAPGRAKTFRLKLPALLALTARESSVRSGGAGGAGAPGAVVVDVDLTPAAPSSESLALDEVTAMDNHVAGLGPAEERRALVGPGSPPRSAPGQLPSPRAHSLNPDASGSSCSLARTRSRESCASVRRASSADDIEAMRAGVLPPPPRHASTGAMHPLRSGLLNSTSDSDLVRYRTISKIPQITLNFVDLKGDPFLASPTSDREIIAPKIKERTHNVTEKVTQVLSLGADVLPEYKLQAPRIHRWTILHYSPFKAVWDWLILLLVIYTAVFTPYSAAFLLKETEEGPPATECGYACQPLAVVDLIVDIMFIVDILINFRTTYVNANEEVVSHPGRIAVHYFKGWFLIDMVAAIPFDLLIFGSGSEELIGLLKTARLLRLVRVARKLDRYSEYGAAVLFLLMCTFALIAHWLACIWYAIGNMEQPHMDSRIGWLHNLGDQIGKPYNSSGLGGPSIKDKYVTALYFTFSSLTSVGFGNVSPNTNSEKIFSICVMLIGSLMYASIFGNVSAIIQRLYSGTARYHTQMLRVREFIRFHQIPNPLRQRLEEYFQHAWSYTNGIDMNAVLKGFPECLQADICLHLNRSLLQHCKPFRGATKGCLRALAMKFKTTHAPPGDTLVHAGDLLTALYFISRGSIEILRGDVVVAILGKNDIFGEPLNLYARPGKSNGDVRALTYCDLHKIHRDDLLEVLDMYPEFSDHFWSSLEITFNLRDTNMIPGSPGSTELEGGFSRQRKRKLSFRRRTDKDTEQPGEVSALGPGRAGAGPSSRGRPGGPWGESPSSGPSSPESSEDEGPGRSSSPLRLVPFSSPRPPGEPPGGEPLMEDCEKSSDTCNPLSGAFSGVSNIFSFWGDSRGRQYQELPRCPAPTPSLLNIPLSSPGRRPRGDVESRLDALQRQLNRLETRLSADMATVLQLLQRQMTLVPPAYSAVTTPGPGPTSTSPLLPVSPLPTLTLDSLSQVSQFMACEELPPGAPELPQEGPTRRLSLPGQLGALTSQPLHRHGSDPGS

Compound | TREK-1 blockade at 100 nM compared with spadin (in words) (human TREK-1 channel [1]) | FST immobility time, subchronic treatment (C57Bl/6J mice [3]) | FST immobility time, acute treatment (C57Bl/6J mice [3]) | FST immobility time 1 h after injection (action duration) (C57Bl/6J mice [3]) | FST immobility time 16 h after injection (action duration) (C57Bl/6J mice [3]) | IC50 (human TREK-1 channel [6]) | NSF latency to feed, subchronic treatment (C57Bl/6J mice [7]) | further results
CC[C@H](C)[C@H](NC(=O)[C@@H]1CCCN1C(=O)CNC(=O)[C@H](CO)NC(=O)[C@H](Cc1c[nH]c2ccccc12)NC(=O)[C@H](CCCNC(=N)N)NC(=O)[C@@H]1CCCN1C(=O)[C@H](CC(C)C)NC(=O)[C@@H]1CCCN1C(=O)[C@H](C)NC(=O)[C@H](C)NC(=O)[C@@H]1CCCN1C(=O)[C@@H]1CCCN1C(=O)[C@@H]1CCCN1C(=O)[C@@H]1CCCN1C(=O)[C@H](C)NC(=O)[C@H](CC(=O)O)NC(=O)[C@H](CC(C)C)NC(=O)[C@H](CCCNC(=N)N)NC(=O)[C@H](CC(=O)O)NC(=O)[C@H](CCC(N)=O)NC(C)=O)C(=O)NCC(=O)N[C@H](C(=O)N[C@@H](CO)C(=O)N[C@@H](Cc1c[nH]c2ccccc12)C(=O)NCC(=O)N[C@@H](CC(C)C)C(=O)N[C@@H](CCCNC(=N)N)C(N)=O)C(C)C [analog 7] | bad inhibitor of TREK-1 channels | – | – | – | – | – | – | –
CC[C@@H](C)[C@@H](NC(=O)CNC(=O)[C@H](NC(=O)[C@@H](CO)NC(=O)[C@@H](Cc1c[nH]c2ccccc12)NC(=O)CNC(=O)[C@@H](CC(C)C)NC(=O)[C@@H](CCCNC(=N)N)NC(C)=O)C(C)C)C(=O)N1CCC[C@@H]1C(=O)NCC(=O)N[C@H](CO)C(=O)N[C@H](Cc1c[nH]c2ccccc12)C(=O)N[C@H](CCCNC(=N)N)C(=O)N1CCC[C@@H]1C(=O)N[C@H](CC(C)C)C(=O)N1CCC[C@@H]1C(=O)N[C@H](C)C(N)=O [analog 3] (Ac-[dR][dL]G[dW][dS][dV]G[dI][dP]G[dS][dW][dR][dP][dL][dP][dA]-NH2) | increased blockade effect when compared to spadin | 114.9 ± 9.82 s | 135.10 ± 8.11 s | 123.4 ± 7.0 s | 129.6 ± 12.7 s | 11.5 ± 0.59 nM | 143.88 ± 23.42 s | Locomotor activity versus saline-treated mice (coming-and-going, climbing, total movements) (C57Bl/6J mice [2]): no significant difference; Effect on kaïnate-triggered seizures, 1 μg/kg (C57Bl/6J mice [4]; 1 μg/kg i.v., n = 10): no protective effect; Effect on kaïnate-triggered seizures, 10 μg/kg (C57Bl/6J mice [4]; 10 μg/kg i.v., n = 10, monitored 2 h): important protective effect; Number of mice reaching the two less severe seizure stages (immobility, head or neck movements) (C57Bl/6J mice [4]; 10 μg/kg i.v., n = 10, saline: at least 9 among 10, five died): two mice among 10; Tail withdrawal time (C57Bl/6J mice [5]): 11.32 ± 1.04 s; Effect on IKS current (human-IKS current; HEK-IKS cells): did not modify currents; IKS tail current density at 0 mV in the presence of the analog (human-IKS current; n = 5, mean ± SEM, control 8.33 ± 1.78 pA/pF): 8.33 ± 2.06 pA/pF; IKS current density at 0 mV, end of pulse, in the presence of the analog (human-IKS current; n = 5, mean ± SEM, control 17.65 ± 3.84 pA/pF): 17.58 ± 4.03 pA/pF; Amount recovered in a half brain (10 nmol i.v. (100 μL of 100 μM, caudal vein), 30 min after injection, acidic extraction, RP18 HPLC, standard curve 50-200 pmol, estimated): ~100 pmol; Yield to cross the blood-brain-barrier (10 nmol i.v., 30 min after injection, amount per brain relative to injected amount): ~2%; Amount recovered per brain (10 nmol i.v., 30 min after injection, extrapolated from a half brain): ~200 pmol; HPLC peak in brain extract 60 min after injection (10 nmol i.v., 60 min after injection): disappeared after 60 min; Effect on IKR current (hERG channel (IKR); HEK cells expressing hERG): did not modify currents; IKR tail current density at 0 mV in the presence of the analog (hERG channel (IKR); n = 5, mean ± SEM, control 204.59 ± 34.18 pA/pF): 212.99 ± 38.38 pA/pF; IKR current density at 0 mV, end of first pulse, in the presence of the analog (hERG channel (IKR); n = 5, mean ± SEM, control 225.14 ± 33.09 pA/pF): 224.48 ± 35.94 pA/pF
Ac-[dR][dR][dW][dR]GG[dR][dP][dF][dA]GG[dA][dA][dA][dA][dR][dL]G[dW][dS][dV]G[dI][dP]G[dS][dW][dR][dP][dL][dP][dA][dA][dP][dP][dP][dP][dA][dD][dL][dR][dD][dQ]-NH2 [analog 12] | did not display a better efficacy | – | – | – | – | – | – | –
Ac-APLPRWSGPIGVSWGLR-NH2 [analog 2] | – | – | – | – | – | 60 ± 0.41 nM | – | –
Ac-APPPPAAPLPRWSGPIGVSWGLR-NH2 [analog 9] | inhibitory effect close to that of spadin | – | – | – | – | – | – | –
Ac-QDRLDAPPPPAAPLPRWSGPIGVSWGLRAAAAGGAFPRGGRWRR-NH2 [analog 11] | reduced blocking effect on TREK-1 channels | – | – | – | – | – | – | –
spadin [reference compound] | – | 123.70 ± 7.16 s | 107.40 ± 5.05 s | 102.4 ± 6.2 s | 175.3 ± 7.5 s | – | 151.11 ± 17.70 s | Increase of the number of BrdU-positive cells in SGZ versus saline (factor) (C57Bl/6J mice [8]): ≥ 2; FST immobility time 3 h after injection (action duration) (C57Bl/6J mice [3]; 3 h after injection (order of values follows order of times), saline 170.3 ± 4.5 s): 113.2 ± 5.0 s; FST immobility time 7 h after injection (action duration) (C57Bl/6J mice [3]; 7 h after injection (order of values follows order of times), saline 170.3 ± 4.5 s): 150.8 ± 6.5 s; Biological half-life time measured by the FST (C57Bl/6J mice [3]; from loss of FST efficacy with time after injection): around 6 h
CC[C@@H](C)[C@@H](NC(=O)CNC(=O)[C@H](NC(=O)[C@@H](CO)NC(=O)[C@@H](Cc1c[nH]c2ccccc12)NC(=O)CNC(=O)[C@@H](CC(C)C)NC(=O)[C@@H](CCCNC(=N)N)NC(C)=O)C(C)C)C(=O)N1CCC[C@@H]1C(=O)NCC(=O)N[C@H](CO)C(=O)N[C@H](Cc1c[nH]c2ccccc12)C(=O)N[C@H](CCCNC(=N)N)C(=O)N1CCC[C@@H]1C(=O)N[C@H](CC(C)C)C(=O)N1CCC[C@@H]1C(=O)N[C@H](C)C(=O)N[C@H](C)C(=O)N1CCC[C@@H]1C(=O)N1CCC[C@@H]1C(=O)N1CCC[C@@H]1C(=O)N1CCC[C@@H]1C(=O)N[C@H](C)C(=O)N[C@H](CC(=O)O)C(=O)N[C@H](CC(C)C)C(=O)N[C@H](CCCNC(=N)N)C(=O)N[C@H](CC(=O)O)C(=O)N[C@H](CCC(N)=O)C(N)=O [analog 8] (Ac-[dR][dL]G[dW][dS][dV]G[dI][dP]G[dS][dW][dR][dP][dL][dP][dA][dA][dP][dP][dP][dP][dA][dD][dL][dR][dD][dQ]-NH2) | increased blockade effect when compared to spadin | 124.1 ± 10.53 s | 83.60 ± 9.01 s | 121.7 ± 5.2 s | 129.1 ± 12.0 s | 9.95 ± 0.85 nM | 167.00 ± 22.96 s | Tail withdrawal time (C57Bl/6J mice [5]): 13.85 ± 0.72 s
